# Reference: the supplement of paper PMC4862054
# Tested on: BT-549
# Assay: normalised response (% of control), CellTiter-Glo; higher = more viable cells (100 = DMSO, 0 = benzethonium chloride kill control)
# Settings: incubation time: 72 h
# Description: (§1)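 DSRT, 72 h incubation, CellTox Green / CellTiter-Glo readout. Signal is normalised to DMSO and benzethonium chloride controls. Value is the normalised response at the highest dose.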
row,Compound,normalised response [%]
1,CC(C)c1c(C(=O)Nc2ccccc2)c(-c2ccccc2)c(-c2ccc(F)cc2)n1CC[C@@H](O)C[C@@H](O)CC(=O)O [Atorvastatin] (10000 nM),70
2,Cn1c(=O)n(-c2ccc(C(C)(C)C#N)cc2)c2c3cc(-c4cnc5ccccc5c4)ccc3ncc21 [Dactolisib] (1000 nM),25.9
3,Nc1ncnc2c1c(COc1cccc(Cl)c1)nn2C1CCOCC1 (10000 nM),88.1
4,O=C1NC(=O)[C@@H](c2cn3c4c(cccc24)CCC3)[C@@H]1c1c[nH]c2ccccc12 [Tivantinib] (1000 nM),35.4
5,O=C(O)CCCc1ccc(N(CCCl)CCCl)cc1 [Chlorambucil] (10000 nM),91.9

# Tested on: BT-474
# Assay: as above
# Settings: incubation time: 72 h
# Description: as §1
row,Compound,normalised response [%]
1,NS(=O)(=O)OC[C@@H]1C[C@@H](n2ccc3c(N[C@H]4CCc5ccccc54)ncnc32)C[C@@H]1O [Pevonedistat] (10000 nM),45.5
2,CN(C)C[C@@H]1CCn2cc(c3ccccc32)C2=C(C(=O)NC2=O)c2cn(c3ccccc23)CCO1 [Ruboxistaurin] (10000 nM),4.02
3,C[C@]12CC[C@H](O)CC1=CC[C@@H]1[C@@H]2CC[C@]2(C)C(c3cccnc3)=CC[C@@H]12 [Abiraterone] (5000 nM),97
4,CC(C)c1c(C(=O)Nc2ccccc2)c(-c2ccccc2)c(-c2ccc(F)cc2)n1CC[C@@H](O)C[C@@H](O)CC(=O)O [Atorvastatin] (10000 nM),11.1
5,Cn1c(=O)n(-c2ccc(C(C)(C)C#N)cc2)c2c3cc(-c4cnc5ccccc5c4)ccc3ncc21 [Dactolisib] (1000 nM),61.8
6,Nc1ncnc2c1c(COc1cccc(Cl)c1)nn2C1CCOCC1 (10000 nM),86.8
7,O=C1NC(=O)[C@@H](c2cn3c4c(cccc24)CCC3)[C@@H]1c1c[nH]c2ccccc12 [Tivantinib] (1000 nM),60.2
8,O=C(O)CCCc1ccc(N(CCCl)CCCl)cc1 [Chlorambucil] (10000 nM),96

# Tested on: MCF-10A
# Assay: as above
# Settings: incubation time: 72 h
# Description: as §1
row,Compound,normalised response [%]
1,NS(=O)(=O)OC[C@@H]1C[C@@H](n2ccc3c(N[C@H]4CCc5ccccc54)ncnc32)C[C@@H]1O [Pevonedistat] (10000 nM),91.2
2,CN(C)C[C@@H]1CCn2cc(c3ccccc32)C2=C(C(=O)NC2=O)c2cn(c3ccccc23)CCO1 [Ruboxistaurin] (10000 nM),42.6
3,C[C@]12CC[C@H](O)CC1=CC[C@@H]1[C@@H]2CC[C@]2(C)C(c3cccnc3)=CC[C@@H]12 [Abiraterone] (5000 nM),109
4,CC(C)c1c(C(=O)Nc2ccccc2)c(-c2ccccc2)c(-c2ccc(F)cc2)n1CC[C@@H](O)C[C@@H](O)CC(=O)O [Atorvastatin] (10000 nM),4.77
5,Cn1c(=O)n(-c2ccc(C(C)(C)C#N)cc2)c2c3cc(-c4cnc5ccccc5c4)ccc3ncc21 [Dactolisib] (1000 nM),52.3
6,Nc1ncnc2c1c(COc1cccc(Cl)c1)nn2C1CCOCC1 (10000 nM),89.3
7,O=C1NC(=O)[C@@H](c2cn3c4c(cccc24)CCC3)[C@@H]1c1c[nH]c2ccccc12 [Tivantinib] (1000 nM),58.1
8,O=C(O)CCCc1ccc(N(CCCl)CCCl)cc1 [Chlorambucil] (10000 nM),97.3

# Tested on: HDQ-P1
# Assay: as above
# Settings: incubation time: 72 h
# Description: as §1
row,Compound,normalised response [%]
1,NS(=O)(=O)OC[C@@H]1C[C@@H](n2ccc3c(N[C@H]4CCc5ccccc54)ncnc32)C[C@@H]1O [Pevonedistat] (10000 nM),72.6
2,CN(C)C[C@@H]1CCn2cc(c3ccccc32)C2=C(C(=O)NC2=O)c2cn(c3ccccc23)CCO1 [Ruboxistaurin] (10000 nM),35
3,C[C@]12CC[C@H](O)CC1=CC[C@@H]1[C@@H]2CC[C@]2(C)C(c3cccnc3)=CC[C@@H]12 [Abiraterone] (5000 nM),104
4,CC(C)c1c(C(=O)Nc2ccccc2)c(-c2ccccc2)c(-c2ccc(F)cc2)n1CC[C@@H](O)C[C@@H](O)CC(=O)O [Atorvastatin] (10000 nM),44
5,Cn1c(=O)n(-c2ccc(C(C)(C)C#N)cc2)c2c3cc(-c4cnc5ccccc5c4)ccc3ncc21 [Dactolisib] (1000 nM),52.4
6,Nc1ncnc2c1c(COc1cccc(Cl)c1)nn2C1CCOCC1 (10000 nM),92.2
7,O=C1NC(=O)[C@@H](c2cn3c4c(cccc24)CCC3)[C@@H]1c1c[nH]c2ccccc12 [Tivantinib] (1000 nM),69.9
8,O=C(O)CCCc1ccc(N(CCCl)CCCl)cc1 [Chlorambucil] (10000 nM),101

# Tested on: MDA-MB-453
# Assay: as above
# Settings: incubation time: 72 h
# Description: as §1
row,Compound,normalised response [%]
1,NS(=O)(=O)OC[C@@H]1C[C@@H](n2ccc3c(N[C@H]4CCc5ccccc54)ncnc32)C[C@@H]1O [Pevonedistat] (10000 nM),66.2
2,CN(C)C[C@@H]1CCn2cc(c3ccccc32)C2=C(C(=O)NC2=O)c2cn(c3ccccc23)CCO1 [Ruboxistaurin] (10000 nM),0.01
3,C[C@]12CC[C@H](O)CC1=CC[C@@H]1[C@@H]2CC[C@]2(C)C(c3cccnc3)=CC[C@@H]12 [Abiraterone] (5000 nM),112
4,CC(C)c1c(C(=O)Nc2ccccc2)c(-c2ccccc2)c(-c2ccc(F)cc2)n1CC[C@@H](O)C[C@@H](O)CC(=O)O [Atorvastatin] (10000 nM),89.7
5,Cn1c(=O)n(-c2ccc(C(C)(C)C#N)cc2)c2c3cc(-c4cnc5ccccc5c4)ccc3ncc21 [Dactolisib] (1000 nM),37.9
6,Nc1ncnc2c1c(COc1cccc(Cl)c1)nn2C1CCOCC1 (10000 nM),88.3
7,O=C1NC(=O)[C@@H](c2cn3c4c(cccc24)CCC3)[C@@H]1c1c[nH]c2ccccc12 [Tivantinib] (1000 nM),54.3
8,O=C(O)CCCc1ccc(N(CCCl)CCCl)cc1 [Chlorambucil] (10000 nM),123
